Data on 54 compounds can be found in patent US20160130226A1, “SPIRO-SUBSTITUTED OXINDOLE DERIVATIVES HAVING AMPK ACTIVITY” (BOEHRINGER INGELHEIM INTERNATIONAL GMBH, priority 2013, published 2016).

In one assay the target is T1, AMPK beta 1 (Homo sapiens, UniProt Q13131+Q9Y478).
T1 construct: in-cell-ELISA for phospho-ACC (Acetyl-CoA carboxylase 1) in HepG2 cells (liver); endogenous in cells; host or cells: HepG2 (assignment to the beta 1 column inferred)
T1 sequence (Q9Y478 2-270 limits assumed): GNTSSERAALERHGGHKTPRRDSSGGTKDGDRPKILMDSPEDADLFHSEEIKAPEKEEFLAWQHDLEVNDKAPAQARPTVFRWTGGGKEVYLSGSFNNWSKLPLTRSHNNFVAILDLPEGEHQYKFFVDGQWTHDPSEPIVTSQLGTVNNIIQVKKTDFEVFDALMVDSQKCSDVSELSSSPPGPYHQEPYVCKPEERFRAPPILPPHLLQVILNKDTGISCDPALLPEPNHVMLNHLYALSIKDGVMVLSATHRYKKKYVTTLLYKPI
T1 sequence (Q13131 whole entry): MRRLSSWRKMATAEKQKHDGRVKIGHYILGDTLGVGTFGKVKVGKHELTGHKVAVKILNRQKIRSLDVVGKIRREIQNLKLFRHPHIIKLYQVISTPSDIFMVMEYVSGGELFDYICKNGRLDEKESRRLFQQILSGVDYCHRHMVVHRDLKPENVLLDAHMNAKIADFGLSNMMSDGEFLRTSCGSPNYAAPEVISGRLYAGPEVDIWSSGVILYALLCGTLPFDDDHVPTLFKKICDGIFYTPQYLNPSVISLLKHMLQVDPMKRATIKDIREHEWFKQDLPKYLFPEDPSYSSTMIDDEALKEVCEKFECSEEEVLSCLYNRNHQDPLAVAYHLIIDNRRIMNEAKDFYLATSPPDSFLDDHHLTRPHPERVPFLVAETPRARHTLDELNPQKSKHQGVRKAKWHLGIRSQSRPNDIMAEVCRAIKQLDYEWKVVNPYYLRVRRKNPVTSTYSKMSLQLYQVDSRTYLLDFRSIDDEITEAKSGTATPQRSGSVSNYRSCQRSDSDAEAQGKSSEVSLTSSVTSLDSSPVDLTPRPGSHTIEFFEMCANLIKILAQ
T1 sequence (P54619 whole entry partner): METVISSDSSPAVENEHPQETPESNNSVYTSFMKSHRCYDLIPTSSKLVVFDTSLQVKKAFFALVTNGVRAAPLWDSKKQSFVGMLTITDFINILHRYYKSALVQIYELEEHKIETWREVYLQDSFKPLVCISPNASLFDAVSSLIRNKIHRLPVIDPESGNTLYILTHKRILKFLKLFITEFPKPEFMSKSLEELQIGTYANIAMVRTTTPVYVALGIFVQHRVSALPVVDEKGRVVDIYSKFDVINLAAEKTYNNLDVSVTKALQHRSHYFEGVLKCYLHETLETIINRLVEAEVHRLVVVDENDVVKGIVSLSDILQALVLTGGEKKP
Nature of the assay: in-cell-ELISA for phospho-ACC: activation of AMPK, beta 1 (HepG2 cells / C2C12 myotubes). The assay is classed as cell-based. The note with it: 1 μM, 2 h, percentage activation over vehicle control. As for the experimental part:
Activation of AMPK by various compounds were measured using in-cell-ELISA for phospho-ACC (Acetyl-CoA carboxylase 1) in HepG2 cells (liver) and fully differentiated myotubes (C2C12 cells) grown in 96 well plate. Cells were treated with 1 μM, 3 μM or 10 μM of the molecule (Example) for 2 h in serum free DMEM media. After methanol fixation, cells were blocked with BSA followed by addition of anti-phospho ACC antibody (Cell Signaling) and HRP conjugated secondary antibody. Absorbance values taken at 450 nm were normalized with total DNA (Hoechest stain). Results were expressed as percentage activation over vehicle control.
Percentage activation at compound (Example) concentration of 1, 3 or 10 μM for compounds according to the invention are shown in the following table. The number of the compound corresponds to the number of the Example (Ex) in the experimental section.
(In general: ELISA stands for enzyme-linked immunosorbent assay.)
Take `Cc1ccc(C2CC23C(=O)Nc2cc(Cl)c(-c4ccc(-c5ccc(-n6cncn6)cc5)c(F)c4)cc23)cc1C(=O)O` (stereo not drawn) [Example 151]: the “Percentage activation of beta 1 at given concentration” value (“Percentage activation” for short) was 25% at 1 μM.
The same measure, in the same setting: the value for `Cc1ccc(C2CC23C(=O)Nc2cc(F)c(-c4ccc(-c5ccc(-n6cccn6)cc5)cc4)cc23)cc1C(=O)O` (stereo not drawn) [Example 144] was 118% at 1 μM; that for `Cc1ccc(C2CC23C(=O)Nc2cc(Cl)c(-c4ccc(-c5ccc(-n6cncn6)cc5)cc4)cc23)cc1C(=O)O` (stereo not drawn) [Example 117] was 165% at 1 μM.

Staying with this assay, now noted: 3 μM, 2 h, percentage activation over vehicle control.
For `Cc1ccc(C2CC23C(=O)Nc2cc(Cl)c(-c4ccc(-c5ccc(-n6cncn6)cc5)cc4)cc23)cc1CO` (stereo not drawn) [Example 185], the “Percentage activation” value was found to be 34% at 3 μM.
As to `O=C(O)Cc1cccc(C2CC23C(=O)Nc2cc(Cl)c(-c4ccc(-c5ccncc5)cc4)cc23)c1` (stereo not drawn) [Example 61], the “Percentage activation” value is 118% at 3 μM.
Take `O=C(O)Cc1cccc(C2CC23C(=O)Nc2cc(Cl)c(-c4ccc(-c5ccncc5)cc4)cc23)c1` (stereo not drawn) [Example 58]: the “Percentage activation” value was 47% at 3 μM.

Still in this assay, the particulars now being: 10 μM, 2 h, percentage activation over vehicle control.
For the compound `Cc1ccc(C2CC23C(=O)Nc2cc(Cl)c(-c4ccc(C5(CO)CC5)cc4)cc23)cc1C(=O)O` (stereo not drawn) [Example 44], the “Percentage activation” value is 11% at 10 μM.
On the same count and under the same terms, the value for `O=C(O)Cc1cccc(C2CC23C(=O)Nc2cc(Cl)c(-c4ccc(-c5ccccc5O)cn4)cc23)c1` (stereo not drawn) [Example 18] was 168% at 10 μM; that for `O=C(O)Cc1cccc(C2CC23C(=O)Nc2cc(Cl)c(-c4ccc(-c5ccccc5O)cn4)cc23)c1` (stereo not drawn) [Example 16] was 23% at 10 μM.

The same assay, now with this note: 2 h, 1 μM, percentage activation over vehicle control, read-out: Percentage activation of beta 1 at given concentration.
As for `Cn1cc(C2CC23C(=O)Nc2cc(Cl)c(-c4ccc(-c5ccc(-n6cncn6)cc5)cc4)cc23)cc1C(=O)O` (stereo not drawn) [Example 126], the activation at 1 µM was found to be 38%.
Same read-out and setting: under `O=C(O)Cc1cccc(C2CC23C(=O)Nc2cc(F)c(-c4ccc(-c5ccc(-n6ccnn6)cc5)cc4)cc23)c1` (stereo not drawn) [Example 174] stands 87%; under `Cc1ccc(C2CC23C(=O)Nc2cc(Cl)c(-c4ccc(-c5ccncc5)cc4)cc23)cc1CC(=O)O` (stereo not drawn) [Example 63], 42%.
The same measure, in the same setting: the value for `Cc1ccc(C2CC23C(=O)Nc2c3cc(-c3ccc(-c4ccc(-n5cccn5)cc4)cc3)c(Cl)c2Cl)cc1C(=O)O` (stereo not drawn) [Example 153] was 10%; that for `COc1ccc(C2CC23C(=O)Nc2cc(F)c(-c4ccc(-c5ccc(-n6ccnn6)cc5)cc4)cc23)cc1CC(=O)O` (stereo not drawn) [Example 177] was 51%.

Still in this assay, the particulars now being: 2 h, 3 μM, percentage activation over vehicle control, read-out: Percentage activation of beta 1 at given concentration.
For the compound `Cc1ccc(C2CC23C(=O)N(CCO)c2cc(Cl)c(-c4ccc(-c5ccncc5)cc4)cc23)cc1C(=O)O` (stereo not drawn) [Example 105], the activation at 3 µM stood at 81%.
Same read-out and setting: the value for `COc1ccc(C2CC23C(=O)Nc2cc(Cl)c(-c4ccc(-c5ccncc5)cc4)cc23)cc1CC(=O)O` (stereo not drawn) [Example 70] was 59%; that for `COc1ccc(C2CC23C(=O)Nc2cc(Cl)c(-c4ccc(-c5ccc(-n6cccn6)cc5)cc4)cc23)cc1C(=O)O` (stereo not drawn) [Example 121] was 91%.
Same read-out and setting: the value for `Cc1ccc(C2CC23C(=O)Nc2cc(Cl)c(-c4ccc(-c5ccc(-c6nnn[nH]6)cc5)cc4)cc23)cc1C(=O)O` (stereo not drawn) [Example 136] was 19%; that for `COCN1C(=O)C2(CC2c2ccc(C)c(C(=O)O)c2)c2cc(-c3ccc(-c4ccncc4)cc3)c(Cl)cc21` (stereo not drawn) [Example 99] was 66%; that for `O=C(O)c1cccc(C2CC23C(=O)Nc2cc(F)c(-c4ccc(-c5ccccc5O)cc4)cc23)c1` (stereo not drawn) [Example 2] was 60%.
Turning to `Cc1ccc(C2CC23C(=O)Nc2cc(F)c(-c4ccc(-c5ccc(-n6cccn6)cc5)cc4)cc23)cc1C(=O)O` (stereo not drawn) [Example 141], the activation at 3 µM turned out to be 104%.
On the same count and under the same terms, the value for `Cc1ccc(C2CC23C(=O)Nc2cc(Cl)c(-c4ccc(-c5ccc(-n6cncn6)cc5)cc4)cc23)cc1C(C)(C)O` (stereo not drawn) [Example 186] was 32%; that for `Cc1ccc(C2CC23C(=O)N(C)c2cc(Cl)c(-c4ccc(-c5ccncc5)cc4)cc23)cc1C(=O)O` (stereo not drawn) [Example 100] was 134%; that for `Cn1cc(C2CC23C(=O)Nc2cc(Cl)c(-c4ccc(-c5ccccc5O)cc4)cc23)cc1C(=O)O` (stereo not drawn) [Example 43] was 43%.
Same read-out and setting: the value for `Cc1ccc(C2CC23C(=O)Nc2cc(Cl)c(-c4ccc(-c5ccccc5O)cn4)cc23)cc1CC(=O)O` (stereo not drawn) [Example 19] was 43%.
On the same count and under the same terms, the value for `Cc1ccc(C2CC23C(=O)Nc2cc(Cl)c(-c4ccc(-c5ccncc5)c(F)c4)cc23)cc1C(=O)O` (stereo not drawn) [Example 67] was 80%.
`CCN1C(=O)C2(CC2c2ccc(OC)c(CC(=O)O)c2)c2cc(-c3ccc(-c4ccncc4)cc3)c(Cl)cc21` (stereo not drawn) [Example 110]: the activation at 3 µM was found to be 58%.
As to `Cc1ccc(C2CC23C(=O)Nc2cc(F)c(-c4ccc(-c5ccccc5O)cc4)cc23)cc1CC(=O)O` (stereo not drawn) [Example 6], the activation at 3 µM worked out at 66%.
Still for that read-out and setting: under `Cc1ccc(C2CC23C(=O)Nc2cc(Cl)c(-c4ccc(-c5ccc(-n6cncn6)cc5)cc4)cc23)cc1C(=O)O` (stereo not drawn) [Example 116] stands 100%; under `CC(C)c1ccc(C2CC23C(=O)Nc2cc(Cl)c(-c4ccc(-c5ncccc5O)cc4)cc23)cc1C(=O)O` (stereo not drawn) [Example 23], 63%; under `Cc1ccc(C2CC23C(=O)Nc2cc(Cl)c(-c4ccc(-c5ccc(-n6cnnn6)cc5)cc4)cc23)cc1C(=O)O` (stereo not drawn) [Example 140], 21%.
On the same count and under the same terms, under `CN1C(=O)C2(CC2c2ccc(C(C)(C)C(=O)O)cc2)c2cc(-c3ccc(-c4ccncc4)cc3)c(Cl)cc21` (stereo not drawn) [Example 112] stands 30%; under `Cc1ccc(C2CC23C(=O)Nc2cc(Cl)c(-c4ccc(-c5ncccc5O)cc4)cc23)cc1C(=O)O` (stereo not drawn) [Example 20], 99%.
Same read-out and setting: the value for `Cc1ccc(C2CC23C(=O)N(C(C)C)c2cc(Cl)c(-c4ccc(-c5ccncc5)cc4)cc23)cc1C(=O)O` (stereo not drawn) [Example 104] was 56%.

The assay is the same for the next values; noted with them: 2 h, 10 μM, percentage activation over vehicle control, read-out: Percentage activation of beta 1 at given concentration.
In the case of `Cc1ccc(C2CC23C(=O)Nc2cc(Cl)c(-c4ccc5cc[nH]c5c4)cc23)cc1C(=O)O` (stereo not drawn) [Example 93], the activation at 10 µM worked out at 51%.
Same read-out and setting: the value for `CC(C)c1ccc(C2CC23C(=O)N(C)c2cc(Cl)c(-c4ccc(-c5ncccc5O)cc4)cc23)cc1C(=O)O` (stereo not drawn) [Example 37] was 112%.
The same measure, in the same setting: under `CCn1cc(C2CC23C(=O)Nc2cc(Cl)c(-c4ccc(-c5ccccc5O)cc4)cc23)cc1C(=O)O` (stereo not drawn) [Example 39] stands 28%.
On the same count and under the same terms, the value for `Cc1ccc(C2CC23C(=O)Nc2cc(Cl)c(S(=O)(=O)NC4CCC4)cc23)cc1C(=O)O` (stereo not drawn) [Example 91] was 10%; that for `Cc1ccc(C2CC23C(=O)Nc2cc(F)c(-c4ccc(-c5ccccc5O)cc4)cc23)cc1C(=O)O` (stereo not drawn) [Example 4] was 83%.
`Cc1ccc(C2CC23C(=O)Nc2cc(Cl)c(C#Cc4ccncc4)cc23)cc1C(=O)O` (stereo not drawn) [Example 79]: the activation at 10 µM was found to be 112%.
Consider `CCN1C(=O)C2(CC2c2ccc(C)c(CC(=O)O)c2)c2cc(-c3ccc(-c4ccncc4)cc3)c(Cl)cc21` (stereo not drawn) [Example 113], for which the activation at 10 µM was 51%.
As to `O=C(O)c1cccc(C2CC23C(=O)Nc2cc(F)c(-c4ccc(-c5ccccc5O)cc4)cc23)c1` (stereo not drawn) [Example 1], the activation at 10 µM is 102%.
The same measure, in the same setting: under `Cc1ccc(C2CC23C(=O)Nc2cc(F)c(-c4ccc(N5CCOCC5)cc4)cc23)cc1C(=O)O` (stereo not drawn) [Example 57] stands 89%.
Still for that read-out and setting: under `Cc1ccc(C2CC23C(=O)Nc2cc(Cl)c(-c4ccc(-c5ccccn5)cc4)cc23)cc1C(=O)O` (stereo not drawn) [Example 78] stands 66%; under `COc1ccc(C2CC23C(=O)Nc2cc(F)c(-c4ccc(-c5ccccc5O)cc4)cc23)cc1CC(=O)O` (stereo not drawn) [Example 12], 12%.
The same measure, in the same setting: under `COc1ccc(C2CC23C(=O)Nc2cc(Cl)c(-c4ccc(-c5ccncc5)cc4)cc23)cc1C(=O)O` (stereo not drawn) [Example 73] stands 23%; under `COc1ccc(C2CC23C(=O)Nc2cc(F)c(-c4ccc(-c5ccccc5O)cc4)cc23)cc1C(=O)O` (stereo not drawn) [Example 10], 40%; under `O=C(O)Cc1cccc(C2CC23C(=O)Nc2cc(Cl)c(-c4ccc(C5(CO)CC5)cc4)cc23)c1` (stereo not drawn) [Example 48], 74%.
On to `CC(C)c1ccc(C2CC23C(=O)Nc2cc(Cl)c(-c4ccc(OCCO)cc4)cc23)cc1C(=O)O` (stereo not drawn) [Example 52], for which the activation at 10 µM is 51%.
On the same count and under the same terms, under `Cc1ccc(C2CC23C(=O)Nc2cc(Cl)c(-c4ccc(-c5ccccc5O)cn4)cc23)cc1C(=O)O` (stereo not drawn) [Example 8] stands 25%.
The same measure, in the same setting: the value for `Cc1ccc(C2CC23C(=O)Nc2cc(F)c(-c4ccc(-c5ccccc5O)cc4)cc23)cc1CC(=O)O` (stereo not drawn) [Example 3] was 166%.
For `Cc1ccc(C2CC23C(=O)Nc2cc(Cl)c(-c4ccc5c(ccn5CCO)c4)cc23)cc1C(=O)O` (stereo not drawn) [Example 47], the activation at 10 µM is 72%.
On the same count and under the same terms, under `Cc1ccc(C2CC23C(=O)Nc2cc(Cl)c(S(=O)(=O)Nc4ccccc4O)cc23)cc1C(=O)O` (stereo not drawn) [Example 92] stands 16%; under `Cn1cc(C2CC23C(=O)Nc2cc(Cl)c(-c4ccc(-c5ccc(-n6cccn6)cc5)cc4)cc23)cc1C(=O)O` (stereo not drawn) [Example 120], 48%.
